Laboratory results published in article PMC5812454 (Nanomedicine : nanotechnology, biology, and medicine, 2016).
Where a SMILES comes first, the peptide text is derived from it. Bridges are numbered along the chain shown (N, C = ends). {NH2} = amine

What was measured:
[1] = tested on: HER2-positive breast cancer; conditions: cited from earlier work
[2] = ref [8]; cited from earlier work
[3] = target: T1, Recombinant human HER2 (Thr 23 – Thr 652) fused to IgG1 Fc Tag (Homo sapiens, UniProt P04626); experiment: SPR binding to immobilized HER2
[4] = target: T1, Recombinant human HER2 (Thr 23 – Thr 652) fused to IgG1 Fc Tag; experiment: SPR

## CSCC[C@H](NC(=O)[C@H](Cc1ccc(O)cc1)NC(=O)[C@@H]1CSSC[C@H](NC(=O)[C@@H](N)Cc2ccc(O)cc2)C(=O)N[C@@H](CC(=O)O)C(=O)NCC(=O)N[C@@H](Cc2ccccc2)C(=O)N[C@@H](Cc2ccc(O)cc2)C(=O)N[C@@H](C)C(=O)N1)C(=O)N[C@@H](CC(=O)O)C(=O)N[C@H](C(N)=O)C(C)C [AHNP] (H-YCDGFYACYMDV-NH2; disulfide 2-8)
[1]; free AHNP, dose of 4 mg/kg, ref [12]
  tumor growth inhibition (in words): only a modest degree of inhibition
[2]
  water solubility (in words): poorly water soluble
[3]
  Kd: 0.52 µM
[3]; pH 9.5
  koff: 0.00042 s⁻¹

## AHNP, anti-HER2/neu peptide, 12 amino acid exocyclic mimetic peptide (analogue 3)
[4]
  koff: 0.00042 s⁻¹

## AON: HER2-mRNA annealing Morpholino AON 5′-CATGGTGCTCACTGCGGCTCCGGC-NH2-3′ (all phosphorodiamidate morpholino (PMO), 3' {NH2})
[1]; AON in the absence of HER2 targeting, 2.5 mg/kg, ref [4]
  tumor growth inhibition: 30–40%

## starPEG(PEG200-AHNP)2
[4]
  Kd: 4.6 µM
  koff: 0.00054 s⁻¹
  kon: 118 M⁻¹ s⁻¹
